Measured values as given in patent US20200291018A1, “TAM KINASE INHIBITORS” (SYROS PHARMACEUTICALS, INC., priority 2017, published 2020).

Columns and labels:
FLT3 = target: T1, FLT3 (Homo sapiens, UniProt P36888); assay: TR-FRET kinase activity assay, FLT3; format: biochemical; settings: ATP at Km, 60 minutes
T1 sequence (P36888 27-993): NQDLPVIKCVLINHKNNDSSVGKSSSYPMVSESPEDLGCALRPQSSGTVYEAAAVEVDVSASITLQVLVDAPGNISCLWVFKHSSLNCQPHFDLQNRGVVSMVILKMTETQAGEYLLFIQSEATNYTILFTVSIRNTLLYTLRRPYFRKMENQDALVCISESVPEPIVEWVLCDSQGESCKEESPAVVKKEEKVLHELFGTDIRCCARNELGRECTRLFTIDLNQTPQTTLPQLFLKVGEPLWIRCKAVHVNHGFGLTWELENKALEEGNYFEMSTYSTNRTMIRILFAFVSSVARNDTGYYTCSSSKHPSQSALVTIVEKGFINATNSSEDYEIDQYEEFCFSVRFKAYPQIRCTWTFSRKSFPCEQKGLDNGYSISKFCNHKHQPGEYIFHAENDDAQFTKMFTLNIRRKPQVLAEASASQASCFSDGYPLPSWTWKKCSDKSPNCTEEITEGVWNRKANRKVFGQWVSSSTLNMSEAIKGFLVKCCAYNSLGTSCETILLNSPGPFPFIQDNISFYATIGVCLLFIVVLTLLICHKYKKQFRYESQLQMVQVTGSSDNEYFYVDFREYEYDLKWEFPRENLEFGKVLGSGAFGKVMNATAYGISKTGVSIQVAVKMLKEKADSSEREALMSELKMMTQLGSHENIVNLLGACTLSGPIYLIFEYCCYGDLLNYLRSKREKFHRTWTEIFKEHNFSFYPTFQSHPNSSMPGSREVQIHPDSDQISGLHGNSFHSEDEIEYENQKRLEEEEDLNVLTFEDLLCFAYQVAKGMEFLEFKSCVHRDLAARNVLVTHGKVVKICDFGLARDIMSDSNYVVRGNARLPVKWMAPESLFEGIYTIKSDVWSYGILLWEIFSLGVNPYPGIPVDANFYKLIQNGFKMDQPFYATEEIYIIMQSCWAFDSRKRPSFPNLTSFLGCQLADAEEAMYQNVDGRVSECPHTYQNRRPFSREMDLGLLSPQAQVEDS
Procedure, shortened: (§1)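 Each kinase phosphorylates a fluorescently labeled peptide on tyrosine in the presence of compound, with ATP at its Km, for 60 min at RT in HEPES pH 7.5 buffer with MgCl2, EGTA, Brij 35 and DTT. Product is detected by TR-FRET with a Europium-labeled phospho-specific antibody; IC50 values follow.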

TYRO3 = target: T2, TYRO3 (Homo sapiens, UniProt Q06418); assay: TR-FRET kinase activity assay, TYRO3; format: biochemical; settings: ATP at Km, 60 minutes
T2 sequence (Q06418 41-890): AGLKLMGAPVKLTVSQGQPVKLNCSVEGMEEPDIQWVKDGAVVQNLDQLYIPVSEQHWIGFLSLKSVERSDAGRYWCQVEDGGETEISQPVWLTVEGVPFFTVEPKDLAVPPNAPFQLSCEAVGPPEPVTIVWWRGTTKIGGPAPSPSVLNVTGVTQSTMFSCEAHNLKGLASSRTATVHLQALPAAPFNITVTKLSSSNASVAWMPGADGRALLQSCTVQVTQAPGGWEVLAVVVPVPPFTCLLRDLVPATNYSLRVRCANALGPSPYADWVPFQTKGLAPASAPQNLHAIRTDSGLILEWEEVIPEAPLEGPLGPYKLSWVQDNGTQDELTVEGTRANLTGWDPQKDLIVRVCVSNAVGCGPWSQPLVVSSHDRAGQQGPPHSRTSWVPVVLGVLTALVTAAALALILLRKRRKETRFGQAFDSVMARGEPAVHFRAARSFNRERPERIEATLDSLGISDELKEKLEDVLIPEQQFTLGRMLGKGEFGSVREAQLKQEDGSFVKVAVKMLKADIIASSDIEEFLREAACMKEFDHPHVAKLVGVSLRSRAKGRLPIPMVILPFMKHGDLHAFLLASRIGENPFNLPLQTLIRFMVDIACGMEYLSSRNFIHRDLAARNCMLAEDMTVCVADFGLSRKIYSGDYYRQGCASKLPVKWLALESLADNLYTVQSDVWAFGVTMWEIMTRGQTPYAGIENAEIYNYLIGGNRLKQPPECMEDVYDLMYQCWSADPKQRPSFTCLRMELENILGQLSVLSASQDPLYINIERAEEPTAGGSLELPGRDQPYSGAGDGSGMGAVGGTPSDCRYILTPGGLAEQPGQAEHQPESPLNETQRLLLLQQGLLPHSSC
Procedure, shortened: as §1

Row | SMILES | IC50 (FLT3) | IC50 (TYRO3)
1 | CCC(CC)Nc1ncc2c(=O)n(C3CCNCC3)cc([C@H]3CC[C@H](O)CC3)c2n1 [Compound 120] | 1000 to 10000 nM | ≤ 100 nM
2 | COC[C@H](C)Nc1ncc2c(OC3CCOCC3)ncc([C@H]3CC[C@H](O)CC3)c2n1 [Compound 122, (1S,4r)-4-(2-(((S)-1-methoxypropan-2-yl)amino)-5-((tetrahydro-2H-pyran-4-yl)oxy)pyrido[4,3-d]pyrimidin-8-yl)cyclohexan-1-ol] | 1000 to 10000 nM | 100 to 1000 nM
3 | CCCCNc1ncc2c(NC3CCOCC3)ncc([C@H]3CC[C@H](O)CC3)c2n1 [Compound 124] | ≤ 100 nM | ≤ 100 nM
4 | CCCCNc1ncc2c(OCCOC)ncc([C@H]3CC[C@H](O)CC3)c2n1 [Compound 125] | ≤ 100 nM | 1000 to 10000 nM
5 | CCC[C@H](C)Nc1ncc2c(=O)n(C3CCNCC3)cc([C@H]3CC[C@H](O)CC3)c2n1 [Compound 126] | 1000 to 10000 nM | ≤ 100 nM
6 | Cc1ncc([C@H]2CC[C@H](O)CC2)c2nc(N[C@@H](C)CC(F)(F)F)ncc12 [Compound 356] | 1000 to 10000 nM | ≤ 100 nM
7 | COC[C@H](C)Nc1ncc2c(OC3CCOCC3)ncc(C3CCC(F)(F)CC3)c2n1 [Compound 358] | 1000 to 10000 nM | 100 to 1000 nM
8 | CCOc1ncc([C@H]2CC[C@H](O)CC2)c2nc(N[C@@H](C)CC(F)(F)F)ncc12 [Compound 359] | 100 to 1000 nM | ≤ 100 nM
9 | C[C@@H](CC(F)(F)F)Nc1ncc2c(O[C@H]3C[C@@H](O)C3)ncc([C@H]3CC[C@H](O)CC3)c2n1 [Compound 360] | 100 to 1000 nM | ≤ 100 nM
10 | COC[C@H](C)Nc1ncc2c(Nc3ccncc3)ncc([C@H]3CC[C@H](O)CC3)c2n1 [Compound 362] | 1000 to 10000 nM | 100 to 1000 nM
11 | COC[C@H](C)Nc1ncc2c(Nc3cccnc3)ncc([C@H]3CC[C@H](O)CC3)c2n1 [Compound 363] | 1000 to 10000 nM | ≤ 100 nM
12 | C[C@@H](CC(F)(F)F)Nc1ncc2c(O[C@H]3C[C@H](O)C3)ncc([C@H]3CC[C@H](O)CC3)c2n1 [Compound 364] | 100 to 1000 nM | ≤ 100 nM
13 | C[C@H](Nc1ncc2c(OC3CCOCC3)ncc([C@H]3CC[C@H](O)CC3)c2n1)C(F)F [Compound 365] | 1000 to 10000 nM | ≤ 100 nM
14 | COCCN1CCC(Oc2ncc([C@H]3CC[C@H](O)CC3)c3nc(N[C@@H](C)CC(F)(F)F)ncc23)CC1 [Compound 369] | 1000 to 10000 nM | ≤ 100 nM
15 | C[C@@H](CC(F)(F)F)Nc1ncc2c(OC3C[C@H]4CC[C@@H](C3)N4C)ncc([C@H]3CC[C@H](O)CC3)c2n1 (some centres unmarked) [Compound 370] | 100 to 1000 nM | ≤ 100 nM
16 | COC[C@H](C)Nc1ncc2c(OC3C[C@@H](C)N(C)[C@@H](C)C3)ncc([C@H]3CC[C@H](O)CC3)c2n1 (some centres unmarked) [Compound 371] | 1000 to 10000 nM | ≤ 100 nM
17 | COC[C@H](C)Nc1ncc2c(Nc3ccnc(C)c3)ncc([C@H]3CC[C@H](O)CC3)c2n1 [Compound 372] | 1000 to 10000 nM | 100 to 1000 nM
18 | C[C@@H](CC(F)(F)F)Nc1ncc2c(OC3CCN(c4ncccn4)CC3)ncc([C@H]3CC[C@H](O)CC3)c2n1 [Compound 373] | 1000 to 10000 nM | ≤ 100 nM
19 | COC[C@H](C)Nc1ncc2c(Nc3ccc(C)nc3)ncc([C@H]3CC[C@H](O)CC3)c2n1 [Compound 374] | 1000 to 10000 nM | ≤ 100 nM
20 | Cc1nccc(N2CCC(Oc3ncc([C@H]4CC[C@H](O)CC4)c4nc(N[C@@H](C)CC(F)(F)F)ncc34)CC2)n1 [Compound 375] | 100 to 1000 nM | ≤ 100 nM
21 | C[C@@H](CC(F)(F)F)Nc1ncc2c(OC3CCN([C@@H]4CCOC4)CC3)ncc([C@H]3CC[C@H](O)CC3)c2n1 [Compound 378] | 1000 to 10000 nM | ≤ 100 nM
22 | C[C@@H](CC(F)(F)F)Nc1ncc2c(OC3CCN([C@H]4CCOC4)CC3)ncc([C@H]3CC[C@H](O)CC3)c2n1 [Compound 383] | 1000 to 10000 nM | ≤ 100 nM
23 | COC[C@H](C)Nc1ncc2c(OC3C[C@H](C)N(C)[C@@H](C)C3)ncc([C@H]3CC[C@H](O)CC3)c2n1 (some centres unmarked) [Compound 387] | 1000 to 10000 nM | ≤ 100 nM
24 | COC[C@H](C)Nc1ncc2c(OC3C[C@@H](C)N(C)[C@H](C)C3)ncc([C@H]3CC[C@H](O)CC3)c2n1 (some centres unmarked) [Compound 388] | 1000 to 10000 nM | ≤ 100 nM
25 | C[C@@H](CC(F)(F)F)Nc1ncc2c(OC3CCN(S(C)(=O)=O)CC3)ncc([C@H]3CC[C@H](O)CC3)c2n1 [Compound 389] | 1000 to 10000 nM | 100 to 1000 nM

Further lines, results first:

Row | IC50 (FLT3) | IC50 (TYRO3) | SMILES
26 | 100 to 1000 nM | ≤ 100 nM | COCCN1C(C)(C)CC(Oc2ncc([C@H]3CC[C@H](O)CC3)c3nc(N[C@@H](C)CC(F)(F)F)ncc23)CC1(C)C [Compound 355]
27 | 1000 to 10000 nM | 100 to 1000 nM | COC[C@H](C)Nc1ncc2c(O[C@H]3CCOC3)ncc([C@H]3CC[C@H](O)CC3)c2n1 [Compound 357]
28 | 1000 to 10000 nM | 100 to 1000 nM | COC[C@H](C)Nc1ncc2c(OC3CC(C)(C)N(C(C)=O)C(C)(C)C3)ncc([C@H]3CC[C@H](O)CC3)c2n1 [Compound 361]
29 | 1000 to 10000 nM | 100 to 1000 nM | COC[C@H](C)Nc1ncc2c(O[C@@H]3CCN(C)C3)ncc([C@H]3CC[C@H](O)CC3)c2n1 [Compound 366]
30 | 100 to 1000 nM | ≤ 100 nM | CC[C@@H](C)Nc1ncc2c(OC3CC(C)(C)N(C)C(C)(C)C3)ncc([C@H]3CC[C@H](O)CC3)c2n1 [Compound 367]
31 | > 10000 nM | ≤ 100 nM | COC[C@H](C)Nc1ncc2c(O[C@H]3CCN(C)C3)ncc([C@H]3CC[C@H](O)CC3)c2n1 [Compound 368]
32 | 1000 to 10000 nM | ≤ 100 nM | COCCN1C(C)(C)CC(Oc2ncc([C@H]3CC[C@H](O)CC3)c3nc(N[C@@H](C)CC#N)ncc23)CC1(C)C [Compound 376]
33 | 1000 to 10000 nM | 100 to 1000 nM | COCC(=O)N1C(C)(C)CC(Oc2ncc([C@H]3CC[C@H](O)CC3)c3nc(N[C@@H](C)CC(F)(F)F)ncc23)CC1(C)C [Compound 377]
34 | 100 to 1000 nM | ≤ 100 nM | COCCN1C(C)(C)CC(Oc2ncc([C@H]3CC[C@H](O)CC3)c3nc(NC4(C)CC4)ncc23)CC1(C)C [Compound 379]
35 | 1000 to 10000 nM | ≤ 100 nM | COCCN1C(C)(C)CC(Oc2ncc([C@H]3CC[C@H](O)CC3)c3nc(N[C@@H](C)CCO)ncc23)CC1(C)C [Compound 380]
36 | 1000 to 10000 nM | ≤ 100 nM | COCCN1C(C)(C)CC(Oc2ncc([C@H]3CC[C@H](O)CC3)c3nc(N[C@@H](C)CF)ncc23)CC1(C)C [Compound 381]
37 | 1000 to 10000 nM | ≤ 100 nM | C[C@@H](CF)Nc1ncc2c(OC3CC(C)(C)N(C)C(C)(C)C3)ncc([C@H]3CC[C@H](O)CC3)c2n1 [Compound 382]
38 | 1000 to 10000 nM | ≤ 100 nM | COC[C@H](C)Nc1ncc2c(O[C@H]3CCN(C)C(C)(C)C3)ncc([C@H]3CC[C@H](O)CC3)c2n1 [Compound 384]
39 | 1000 to 10000 nM | ≤ 100 nM | COC[C@H](C)Nc1ncc2c(O[C@@H]3CCN(C)C(C)(C)C3)ncc([C@H]3CC[C@H](O)CC3)c2n1 [Compound 385]
40 | 100 to 1000 nM | ≤ 100 nM | C[C@@H](CC(F)(F)F)Nc1ncc2c(OC3CC(C)(C)N(C)C(C)(C)C3)ncc([C@H]3CC[C@H](O)CC3)c2n1 [Compound 386]
